According to patent US20160206610A1, “METHODS FOR TREATING AND/OR PREVENTING EMESIS AND/OR NAUSEA INCLUDING ACUTE AND/OR DELAYED NAUSEA AND/OR ACUTE EMESIS AND/OR DELAYED EMESIS” (priority 2015, published 2016):

Assay: Fine particle fraction by Next Generation Impactor at 15 LPM (nebulizer solution)
Format: physicochemical
Settings: Example 6: nebulizer solution, 0.125% w/w palonosetron chloride in sodium chloride/citrate buffer
From the text: For a nebulizer solution for inhalation, a 0.125% w/w solution of palonosetron chloride is formulated in a pharmaceutically acceptable buffer for inhalation (0.85% sodium chloride, 0.062% sodium citrate, 0.019% citric acid in water). If tested through a Next Generation Impactor at 15 LPM, the fine particle fraction of palonosetron <4.7 microns is anticipated to be >20%.

fine particle fraction <4.7 microns: > 20%
Compound: O=C1c2cccc3c2[C@H](CCC3)CN1[C@@H]1CN2CCC1CC2 [palonosetron]
